The target in the experiment is T1, human TLR7 (Homo sapiens, UniProt Q9NYK1).
T1 sequence (Q9NYK1 27-1049): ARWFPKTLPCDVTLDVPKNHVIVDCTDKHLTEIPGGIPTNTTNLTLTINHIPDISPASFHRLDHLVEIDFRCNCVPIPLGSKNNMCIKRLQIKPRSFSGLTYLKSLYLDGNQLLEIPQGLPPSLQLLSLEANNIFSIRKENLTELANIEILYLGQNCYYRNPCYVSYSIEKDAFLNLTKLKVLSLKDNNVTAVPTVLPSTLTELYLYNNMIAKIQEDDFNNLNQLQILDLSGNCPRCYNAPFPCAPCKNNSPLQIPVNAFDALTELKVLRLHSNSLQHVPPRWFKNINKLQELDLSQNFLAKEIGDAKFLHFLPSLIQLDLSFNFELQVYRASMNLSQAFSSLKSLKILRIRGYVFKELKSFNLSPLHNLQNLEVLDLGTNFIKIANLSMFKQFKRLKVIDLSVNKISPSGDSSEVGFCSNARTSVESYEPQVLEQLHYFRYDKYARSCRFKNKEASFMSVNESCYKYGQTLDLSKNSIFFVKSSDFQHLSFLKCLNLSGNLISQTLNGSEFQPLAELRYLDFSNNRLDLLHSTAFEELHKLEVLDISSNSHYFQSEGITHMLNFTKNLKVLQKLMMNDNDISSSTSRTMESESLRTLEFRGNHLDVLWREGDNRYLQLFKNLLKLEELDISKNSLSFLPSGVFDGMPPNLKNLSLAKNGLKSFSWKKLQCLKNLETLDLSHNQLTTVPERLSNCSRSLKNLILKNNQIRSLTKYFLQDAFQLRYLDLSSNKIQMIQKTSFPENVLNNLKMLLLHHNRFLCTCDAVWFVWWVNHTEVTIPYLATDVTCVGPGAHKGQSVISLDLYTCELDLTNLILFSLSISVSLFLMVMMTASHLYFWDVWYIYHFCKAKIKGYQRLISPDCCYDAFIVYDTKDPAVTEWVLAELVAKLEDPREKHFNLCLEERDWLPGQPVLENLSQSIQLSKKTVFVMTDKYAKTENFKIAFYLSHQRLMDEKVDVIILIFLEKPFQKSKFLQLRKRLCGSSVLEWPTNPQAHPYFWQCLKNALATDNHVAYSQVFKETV
Put plainly: HEK293-Blue hTLR7 reporter assay (QUANTI-BLUE, SEAP readout). Details: host or cells: HEK293 (HEK-Blue-hTLR7). The class given is cell-based. To be noted: HEK-Blue-hTLR7 cells, QUANTI-BLUE assay (A1-A76), 24 hrs. The procedure:
HEK293-Blue hTLR7 Reporter Assay:
HEK-Blue-hTLR7 cell line (Invivogen, Cat. No. hkb-htlr7) was designed so that the expression of the secreted embryonic alkaline phosphatase (SEAP) was induced by activating NF-κ and AP-1 via stimulating human TLR7 with TLR7 agonists.
HEK-Blue-hTLR7 cells were seeded at a density of 4×10^4 cells/well in a volume of 180 μL in a 96-well plate in DMEM (Cat. No. 11965-092) supplemented with 10% (v/v) heat-inactivated fetal bovine serum (FBS) (Gibco, 10099-1441), 100 U/ml penicillin and 100 μg/ml streptomycin (Gibco, 15140122) containing […], […] and 10% (v/v) heat-inactivated fetal bovine serum. The cells were settled for 5 hrs, then treated with increasing amounts of tested compounds at 37° C. for 24 hrs. Then 20 μL of the supernatant from each well was incubated with 180 uL Quanti-blue substrate solution at 37° C. for 10-30 mins before the activity of the SEAP was determined at 620-655 nm using a spectrophotometer. The EC50 value for each compound was calculated with GraphPad Prism software using the sigmoidal dose-response function.
Molecule `CCCCOc1nc(N)c2ncc(Cc3ccc(CN4CCCC4)cc3)n2n1` [Compound A1, 2-butoxy-7-(4-(pyrrolidin-1-ylmethyl)benzyl)imidazo[2,1-f][1,2,4]triazin-4-amine] displayed a concentration giving a half-maximal response (EC50) of 0.9 µM. That is a sub-micromolar value.

In turn, `CCCCOc1nc(N)c2ncc(Cc3ccc(OCCCN(C)C)cc3)n2n1` [Compound A2, 2-butoxy-7-(4-(3-(dimethylamino)propoxy)benzyl)imidazo[2,1-f][1,2,4]triazin-4-amine] gave a concentration for a half-maximal effect (EC50) of 0.92 µM. The EC50 values of the last two molecules are within 1.5-fold of each other.

With `CCCCOc1nc(N)c2ncc(Cc3ccc(CN4CCOCC4)cc3)n2n1` [Compound A3, 2-butoxy-7-(4-(morpholinomethyl)benzyl)imidazo[2,1-f][1,2,4]triazin-4-amine], the EC50 is greater than 10 µM. In the case of `CCCCOc1nc(N)c2ncc(Cc3ccc(N(C)CCN(C)C)nc3)n2n1` [Compound A4, N^1-(5-((4-amino-2-butoxyimidazo[2,1-f][1,2,4]triazin-7-yl)methyl)pyridin-2-yl)-N^1,N^2,N^2-trimethylethane-1,2-diamine] it was 1.85 µM.

In the case of `CCCCOc1nc(N)c2ncc(Cc3ccc(CN4CCCCC4)cc3)n2n1` [Compound A5, 2-butoxy-7-(4-(piperidin-1-ylmethyl)benzyl)imidazo[2,1-f][1,2,4]triazin-4-amine], the EC50 worked out at 1.27 µM.

`CCCCOc1nc(N)c2ncc(Cc3ccc(CN4CCN(C)CC4)cc3)n2n1` [Compound A6, 2-butoxy-7-(4-((4-methylpiperazin-1-yl)methyl)benzyl)imidazo[2,1-f][1,2,4]triazin-4-amine] showed an EC50 of 1.51 µM.

Molecule `CCCCOc1nc(N)c2ncc(Cc3cccc(CN4CCCCC4)c3)n2n1` [Compound A7, 2-butoxy-7-(3-(piperidin-1-ylmethyl)benzyl)imidazo[2,1-f][1,2,4]triazin-4-amine] came in with a concentration for a half-maximal effect (EC50) greater than 10 µM. Molecule `CCCCOc1nc(N)c2ncc(Cc3ccc4c(c3)CN(C(C)C)CC4)n2n1` [Compound A9, 2-butoxy-7-((2-isopropyl-1,2,3,4-tetrahydroisoquinolin-7-yl)methyl)imidazo[2,1-f][1,2,4]triazin-4-amine] returned a concentration giving a half-maximal response (EC50) greater than 10 µM. Take `CCCCOc1nc(N)c2ncc(Cc3cccc(CN4CCCC4)c3)n2n1` [Compound A11, 2-butoxy-7-(3-(pyrrolidin-1-ylmethyl)benzyl)imidazo[2,1-f][1,2,4]triazin-4-amine]: the 50% effective concentration (EC50) is greater than 10 µM.

Turning to `CCCCOc1nc(N)c2ncc(Cc3cccc(CN4CCOCC4)c3)n2n1` [Compound A12, 2-butoxy-7-(3-(morpholinomethyl)benzyl)imidazo[2,1-f][1,2,4]triazin-4-amine], the concentration giving a half-maximal response (EC50) was greater than 10 µM. The value for `CCCCOc1nc(N)c2ncc(Cc3cccc(CN4CCN(C)CC4)c3)n2n1` [Compound A13, 2-butoxy-7-(3-((4-methylpiperazin-1-yl)methyl)benzyl)imidazo[2,1-f][1,2,4]triazin-4-amine] was greater than 10 µM; that for `CCCCOc1nc(N)c2ncc(Cc3ccccc3CN3CCOCC3)n2n1` [Compound A14, 2-butoxy-7-(2-(morpholinomethyl)benzyl)imidazo[2,1-f][1,2,4]triazin-4-amine] was greater than 10 µM. Molecule `CCCCOc1nc(N)c2ncc(Cc3ccccc3CN3CCCCC3)n2n1` [Compound A15, 2-butoxy-7-(2-(piperidin-1-ylmethyl)benzyl)imidazo[2,1-f][1,2,4]triazin-4-amine] showed an EC50 greater than 10 µM. In the case of `CC(C)COc1nc(N)c2ncc(Cc3cccc(CN4CCCC4)c3)n2n1` [Compound A16, 2-isobutoxy-7-(3-(pyrrolidin-1-ylmethyl)benzyl)imidazo[2,1-f][1,2,4]triazin-4-amine] it was greater than 10 µM.

In turn, `COCCOc1nc(N)c2ncc(Cc3cccc(CN4CCCC4)c3)n2n1` [Compound A17, 2-(2-methoxyethoxy)-7-(3-(pyrrolidin-1-ylmethyl)benzyl)imidazo[2,1-f][1,2,4]triazin-4-amine] showed a concentration for a half-maximal effect (EC50) greater than 10 µM. The value for `Nc1nc(OCCCC(F)(F)F)nn2c(Cc3cccc(CN4CCCC4)c3)cnc12` [Compound A18, 7-(3-(pyrrolidin-1-ylmethyl)benzyl)-2-(4,4,4-trifluorobutoxy)imidazo[2,1-f][1,2,4]triazin-4-amine] was greater than 10 µM.

In the case of `CCCCOc1nc(N)c2ncc(Cc3ccccc3CN3CCCC3)n2n1` [Compound A19, 2-butoxy-7-(2-(pyrrolidin-1-ylmethyl)benzyl)imidazo[2,1-f][1,2,4]triazin-4-amine], the 50% effective concentration (EC50) is greater than 10 µM. `CCCCOc1nc(N)c2ncc(Cc3ccc(CN4CCCC4)cc3F)n2n1` [Compound A20, 2-butoxy-7-(2-fluoro-4-(pyrrolidin-1-ylmethyl)benzyl)imidazo[2,1-f][1,2,4]triazin-4-amine] yielded an EC50 of 1.75 µM. This lies in the single-digit micromolar range. In the case of `CCCCOc1nc(N)c2ncc(Cc3ccc(OCCCN4CCCCC4)cc3)n2n1` [Compound A21, 2-butoxy-7-(4-(3-(piperidin-1-yl)propoxy)benzyl)imidazo[2,1-f][1,2,4]triazin-4-amine] it was 2.87 µM; in that of `CCCCOc1nc(N)c2ncc(Cc3ccc(OCCCN4CCOCC4)cc3)n2n1` [Compound A22, 2-butoxy-7-(4-(3-morpholinopropoxy)benzyl)imidazo[2,1-f][1,2,4]triazin-4-amine], 5.71 µM. In turn, `CCCCOc1nc(N)c2ncc(Cc3cccc(OCCCN(C)C)c3)n2n1` [Compound A23, 2-butoxy-7-(3-(3(dimethylamino)propoxy)benzyl)imidazo[2,1-f][1,2,4]triazin-4-amine] displayed an EC50 greater than 10 µM.

Molecule `CCCCOc1nc(N)c2ncc(Cc3ccc(F)c(OCCCN(C)C)c3)n2n1` [Compound A24, 2-butoxy-7-(3-(3-(dimethylamino)propoxy)-4-fluorobenzyl)imidazo[2,1-f][1,2,4]triazin-4-amine] gave a concentration giving a half-maximal response (EC50) greater than 10 µM. In the case of `CCCCOc1nc(N)c2ncc(Cc3cccc(-c4ccc(CN5CCCC5)cc4)c3)n2n1` [Compound A25, 2-butoxy-7-((4′-(pyrrolidin-1-ylmethyl)-[1,1′-biphenyl]-3-yl)methyl)imidazo[2,1-f][1,2,4]triazin-4-amine] it was greater than 10 µM; in that of `CCCCOc1nc(N)c2ncc(Cc3cc(CN4CCCC4)ccc3F)n2n1` [Compound A26, 2-butoxy-7-(2-fluoro-5-(pyrrolidin-1-ylmethyl)benzyl)Imidazo[2,1-f][1,2,4]triazin-4-amine], greater than 10 µM. The value for `CCCCOc1nc(N)c2ncc(Cc3ccccc3OCCCN(C)C)n2n1` [Compound A27, 2-butoxy-7-(2-(3-(dimethylamino)propoxy)benzyl)imidazo[2,1-f][1,2,4]triazin-4-amine] was greater than 10 µM; that for `CCCCOc1nc(N)c2ncc(Cc3ccc(OCCCN4CCCC4)cc3)n2n1` [Compound A28, 2-butoxy-7-(4-(3-(pyrrolidin-1-yl)propoxy)benzyl)imidazo[2,1-f][1,2,4]triazin-4-amine] was 1.79 µM. The value for `CCCCOc1nc(N)c2ncc(Cc3ccc(OCCCN(CC)CC)cc3)n2n1` [Compound A29, 2-butoxy-7-(4-(3-(diethylamino)propoxy)benzyl)imidazo[2,1-f][1,2,4]triazin-4-amine] was 2.6 µM; that for `CCCCOc1nc(N)c2ncc(Cc3ccc(-c4ccc(CN5CCCC5)cc4)cc3)n2n1` [Compound A30, 2-butoxy-7-((4′-(pyrrolidin-1-ylmethyl)-[1,1′-biphenyl]-4-yl)methyl)imidazo[2,1-f][1,2,4]triazin-4-amine] was 3.52 µM.

One may read the EC50 as the concentration that produces a half-maximal response. Higher therefore signals a need for much substance.

The values above are taken from US12281119B2, “Imidazo[2,1-f][1,2,4]triazin-4-amine derivatives as TLR7 agonist” (BEIGENE, LTD., priority 2019, dated 2025).
